2 compounds from patent US20130190289A1, “COMPOUNDS AND METHODS FOR THE TREATMENT OR PREVENTION OF FLAVIVIRUS INFECTIONS” (priority 2010, published 2013) can be followed below.

Structures are written as SMILES.

Data set [1] relates to HCV replicon (genotype 1b) in Huh7 cell line ET. In words: microbe, parasite or virus in culture. Format: cell-based, HCV genotype 1b. As to conditions: read-out: HCV-Replicon-(Luci-ET) 1b_IC50. (In general: Replicon systems follow genome replication, usually without infectious particles.)
The test system of data set [2] is Huh-7 ET, Molt-4, DU-145, Hep-G2 and SH-SY5Y cells. In words: [3H]Thymidine incorporation assay (cell toxicity). As to conditions: read-out: [3H]Thymidine CC50; [3H]thymidine incorporation, cell toxicity; mean value class; cell line not given. A general note: Uptake of a labelled nucleoside into DNA is a usual measure of proliferation.
Data set [3] concerns HCV sub-genomic replicon of genotype 1a in replicon cell line W11.8. Put plainly: microbe, parasite or virus in culture. Format: cell-based, HCV genotype 1a. The note with it: read-out: HCV-Replicon-ELISA-1a IC50. The text has this:
This procedure below describes the HCV replicon assay using a Huh7 hepatoma cell line harboring a highly cell culture-adapted replicon (genotype 1b) (hereafter named cell line ET). The ET cells contained the highly cell culture-adapted replicon I389luc-ubi-neo/NS3-3′/5.1 construct that carried, in addition to the neomycin gene, an integrated copy to the firefly luciferase gene (Krieger, N; Lohmann, V; Bartenschlager, R. Enhancement of hepatitis C virus RNA replication by cell culture-adaptive mutations. J. Virol. 2001, 75, 4614-4624). A replicon cell line W11.8, containing the 1a genotype of HCV was also used. These two cell lines (genotype 1b and 1a) allowed measurement of RNA replication and translation by measuring luciferase activity (against genotype 1b) or by measuring the NS5A level using the ELISA assay (against genotype 1a). […] ET cell lines were maintained in cultures at a sub-confluent level (<85%). The culture media used for cell passaging consisted of DMEM (Gibco BRL Laboratories, Mississauga, ON, Canada) supplemented with 10% fetal bovine serum with 1% penicilin/streptomycin, 1% glutamine, 1% sodium pyruvate, 1% non-essential amino acids, and 180 µg/ml of G418 final concentration.
Replicon cell lines W11.8 containing a sub-genomic replicon of genotype 1a was used for the HCV Replicon Cell-Based detection using the ELISA. The RNA replication in presence of different drug concentrations was indirectly measured in these cell lines by the level of NS5A protein content upon drug treatment for four days. The NS5A is a non-structural protein of HCV and is used as marker of HCV replication in this assay.
For the treatment of the cells with the testing drug, Culture medium was removed from the 175 cm^2 T-flask by aspiration. Cell monolayer was rinsed with 10-20 mL of PBS 1× at room temperature. PBS was removed by aspiration. Cells were trypsinized using 3 mL of Trypsin (0.25%)/EDTA (0.1%) solution. Flasks were incubated at 37° C. (incubator) for 7 minutes. Complete medium (9 mL) without G418 is then added. Cell clumps were disrupted by pipetting up and down several times.
The cell suspension was then transferred to a 50 mL Falcon polypropylene tube. Cells were then counted several times using the haemocytometer. Cells were diluted at 50,000 cells/mL with complete DMEM without G418, then transferred into a sterile reservoir. Using a multichannel pipet, approximately 5,000 viable cells (100 μL) were plated per well in a white opaque 96-well microtiter plate. After an incubation period of 2-4 hours at 37° C. in a 5% CO2 incubator, compounds were added at various concentrations.
Drugs were resuspended in DMSO at a stock concentration of 100 mM or 10 mM. […] Then, drugs were diluted at twice the final concentration in the same medium (without G418) described earlier, in sterile 96-deep well plate and according to a particular template (see Appendix). One volume (100 μL) of each drug dilution was then added to each well that contains cells.
Sixteen wells were used as control (0% inhibition) without drug. Eight wells were used as background control (100% inhibition) containing 2 μM (final concentration) of the reference compound. […] Values from 100% inhibited wells were averaged and used as the background value. Cells are further incubated for 4 days at 37° C. in a 5% CO2 incubator.
For the measurement of NS5A protein content, following the incubation time of four days, the media was throwed into an appropriate waste container by inverting the plate. Any residual liquid was removed by tapping gently on absorbent paper several times. The plates were then washed once with 150 μL of PBS per well, and then incubated for 5 minutes at room temperature on a shaker (500 rpm).

In general, CC50 refers to the concentration that lowers cell viability or growth by half. Regarding `COC(C)C(C(=O)N(C)C)N(C(=O)C1CCC(C)CC1)c1cc(C#CC(C)(C)C)sc1C(=O)O` (centres unmarked) [Compound 75], in data set [1], the IC50 is under 0.1 µM. The CC50 in data set [2] was 10 to 100 µM.
As to `CC[C@@H](C(=O)N1CCN(C)CC1)N(c1cc(C#CC(C)(C)C)sc1C(=O)O)C(=O)[C@H]1CC[C@H](C)CC1` [Compound 82], the IC50 in data set [1] and in data set [3] was under 0.1 µM each time. Further, the CC50 in data set [2] was over 100 µM.
